Source: patent US10239835B2, “N-alkylaryl-5-oxyaryl-octahydro-cyclopenta[c]pyrrole negative allosteric modulators of NR2B” (Luc Therapeutics, Inc., priority 2014, dated 2019)
Where two headings read alike, the source gives them in different places.

Tests used:
[1] = target: HEK293 cells expressing NR1/NR2B (Homo sapiens (Human), UniProt Q05586+Q13224); test: NR2B NAM Assay (FDSS Ca2+ influx cell assay); assay type: cell-based; conditions: NR2B NAM assay, class of inhibitory concentration; read-out: Activity Category
Protocol: (§1) Cell Culture and plating: HEK293 cells expressing NR1/NR2B (Chantest, Cleveland, Ohio) were grown to 70-80% confluency as an adherent monolayer in standard tissue culture flasks at 37° C., 5% CO2 per supplier's instructions. NR2B expression was induced by incubation with 0.3-0.4 μg/ml tetracycline in the presence of 4 mM ARL-15896 for 18-24 hours under the same growth conditions, then transferred to 30° C. for another 3-5 hours.
(§2) After induction, cell culture medium was removed and cells were rinsed once with Ca^2+ and Mg^2+-free Dulbecco's phosphate buffered saline. Cells were then removed from the flask using TrypLE™ Express (Life Technologies) according to the manufacturer's instructions and collected to 50 ml centrifuge tubes. Following two washes in Ca^2+/Mg^2+-free HBSS with 20 mM HEPES (HHnoCa), cells were counted and viability assessed using trypan blue. To load cells with Ca^2+-sensitive dye, they were resuspended in fluo-8 plus Component B (AAT Bioquest Products) diluted in HHnoCa and incubated 15 minutes at 37° C., followed by 30 minutes at room temp (in dark). Cells were then washed and resuspended in HHnoCa to remove extracellular dye and plated in 384-well plates (Falcon, uncoated) at 20,000-30,000 cells/well in a final volume of 25 μl/well.
(§3) FDSS Assay: To each well of the plate, 10 μL test compound, control (MK801) or HHnoCa buffer was added at different concentrations to yield final concentrations of 0.001, 0.003, 0.010, 0.030, 0.100, 0.300, 1.000, 3.000, 10.000, or 30.000 uM final concentration of DMSO of 0.1%. Following 10 minutes pre-incubation in the dark, plates are loaded onto the Hamamatsu FDSS 6000. After collecting baseline fluorescence images, 3 μM glutamate, 3 μM glycine, and 1 mM Ca^2+ in HHnoCa buffer is added to each well, and Ca^2+ is recorded for 3 minutes. Data were processed by computing ratio of fluorescence at the end of data collection to baseline fluorescence to assess degree of Ca^2+ influx inhibition relative to that observed in MK801.
(§4) Table 8 below provides activity of each compound according to the legend that “++++” indicates inhibition at a concentration<100 nM; “+++” indicates inhibition at a concentration between 100 nM and 1 μM of the disclosed compound; “++” indicates inhibition at a concentration of from 1 μM to 10 μM; and “+” indicates inhibition at a concentration>10 μM.

[2] = target: HEK293 cells expressing NR1/NR2B (Homo sapiens (Human), UniProt Q13224); test: NR2B NAM Assay (FDSS Ca2+ influx cell assay); assay type: cell-based
Protocol: as §1, §2, §3, §4

[3] = Ca2+ influx inhibition relative to MK801, 3 μM glutamate, 3 μM glycine, 1 mM Ca2+, read-out: NR2B NAM IC50

Chain of HEK293 cells expressing NR1/NR2B (Homo sapiens (Human), UniProt Q05586+Q13224) (Q13224 27-1484, other chains not shown): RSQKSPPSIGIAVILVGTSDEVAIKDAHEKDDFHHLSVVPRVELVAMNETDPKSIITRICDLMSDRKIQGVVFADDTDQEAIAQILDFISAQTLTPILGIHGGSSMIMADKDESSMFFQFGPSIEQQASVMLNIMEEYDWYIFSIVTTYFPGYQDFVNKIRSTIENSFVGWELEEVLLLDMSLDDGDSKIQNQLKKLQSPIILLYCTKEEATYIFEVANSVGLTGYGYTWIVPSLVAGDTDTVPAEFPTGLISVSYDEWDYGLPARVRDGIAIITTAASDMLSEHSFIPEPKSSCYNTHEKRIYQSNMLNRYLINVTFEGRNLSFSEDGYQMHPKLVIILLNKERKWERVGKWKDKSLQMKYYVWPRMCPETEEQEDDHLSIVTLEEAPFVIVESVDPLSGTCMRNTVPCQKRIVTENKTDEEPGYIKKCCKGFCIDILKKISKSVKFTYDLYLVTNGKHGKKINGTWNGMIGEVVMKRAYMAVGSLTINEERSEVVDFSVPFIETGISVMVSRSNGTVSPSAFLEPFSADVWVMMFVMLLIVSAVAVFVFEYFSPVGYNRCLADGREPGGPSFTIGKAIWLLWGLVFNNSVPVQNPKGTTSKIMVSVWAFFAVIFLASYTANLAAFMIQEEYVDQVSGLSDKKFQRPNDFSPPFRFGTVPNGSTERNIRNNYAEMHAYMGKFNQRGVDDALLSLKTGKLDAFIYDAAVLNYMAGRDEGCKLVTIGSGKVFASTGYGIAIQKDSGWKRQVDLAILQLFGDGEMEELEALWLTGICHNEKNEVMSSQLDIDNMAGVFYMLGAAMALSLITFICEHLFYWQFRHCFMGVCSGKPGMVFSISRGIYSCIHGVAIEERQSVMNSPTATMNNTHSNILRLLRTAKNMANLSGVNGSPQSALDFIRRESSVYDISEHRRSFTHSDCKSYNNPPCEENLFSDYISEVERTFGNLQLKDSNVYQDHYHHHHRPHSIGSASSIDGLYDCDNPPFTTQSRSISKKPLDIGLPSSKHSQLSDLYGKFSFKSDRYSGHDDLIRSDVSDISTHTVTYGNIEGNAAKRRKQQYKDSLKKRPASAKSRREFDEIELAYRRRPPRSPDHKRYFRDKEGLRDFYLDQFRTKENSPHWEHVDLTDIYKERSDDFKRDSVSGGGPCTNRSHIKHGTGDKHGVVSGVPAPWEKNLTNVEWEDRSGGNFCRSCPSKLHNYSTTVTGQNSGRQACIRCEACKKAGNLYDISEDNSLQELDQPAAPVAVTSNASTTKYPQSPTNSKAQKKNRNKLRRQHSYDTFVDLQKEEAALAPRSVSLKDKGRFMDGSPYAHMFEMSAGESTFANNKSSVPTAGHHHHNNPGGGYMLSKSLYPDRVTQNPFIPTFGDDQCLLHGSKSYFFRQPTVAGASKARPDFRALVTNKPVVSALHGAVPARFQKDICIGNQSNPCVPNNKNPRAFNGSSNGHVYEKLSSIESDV
Chain of HEK293 cells expressing NR1/NR2B (Homo sapiens (Human), UniProt Q13224) (Q13224 27-1484, other chains not shown): as above

| Compound | IC50 [1] | IC50 [2, 3] | IC50 ([2]; NR2B NAM assay, class of inhibitory concentration, read-out: Activity Category) |
| --- | --- | --- | --- |
| N#Cc1ccc(O[C@H]2C[C@@H]3CN(CC(O)c4ccc(O)cc4)C[C@@H]3C2)cc1 (stereo partly shown) | < 100 nM | 47.4 nM |  |
| N#Cc1ccc(O[C@H]2C[C@@H]3CN(CC(=O)c4ccc(O)cn4)C[C@@H]3C2)cc1 | > 10000 nM | 10000 nM |  |
| O=C(CN1C[C@H]2C[C@H](Oc3cnccn3)C[C@H]2C1)c1ccc(O)cc1 | 100 to 1000 nM | 149 nM |  |
| Cc1ncccc1O[C@H]1C[C@@H]2CN(CC(=O)c3ccc(O)cc3)C[C@@H]2C1 | 100 to 1000 nM | 134 nM |  |
| Oc1ccc(C(O)CN2C[C@H]3C[C@@H](Oc4cc(F)cc(F)c4)C[C@H]3C2)nc1 (stereo partly shown) | 1000 to 10000 nM | 2920 nM |  |
| O=C(CN1C[C@H]2C[C@H](Oc3cccc(F)c3F)C[C@H]2C1)c1ccc(O)cn1 | 100 to 1000 nM | 308 nM |  |
| Cc1ccc(O[C@H]2C[C@@H]3CN(CC(O)c4ccc(O)cn4)C[C@@H]3C2)c(F)n1 (stereo partly shown) | < 100 nM | 60.2 nM |  |
| N#Cc1ccc(O[C@@H]2C[C@@H]3CN(CC(=O)c4ccc(O)cn4)C[C@@H]3C2)cc1 | > 10000 nM | 10000 nM |  |
| Oc1ccc(C(O)CN2C[C@H]3C[C@H](Oc4ccc(F)nc4)C[C@H]3C2)nc1 (stereo partly shown) | 100 to 1000 nM | 112 nM |  |
| N#Cc1ccc(O[C@@H]2C[C@@H]3CN(CC(O)c4ccc(O)cn4)C[C@@H]3C2)cc1 (stereo partly shown) | > 10000 nM | 10000 nM |  |
| Oc1ccc([C@H](O)CN2C[C@H]3C[C@H](Oc4ccccc4)C[C@H]3C2)nc1 | < 100 nM | 5.24 nM |  |
| Oc1ccc(C(O)CN2C[C@H]3C[C@H](Oc4cccnc4F)C[C@H]3C2)cc1F (stereo partly shown) | < 100 nM | 21.7 nM |  |
| Oc1ccc([C@@H](O)CN2C[C@H]3C[C@H](Oc4ccccc4)C[C@H]3C2)nc1 | < 100 nM | 5.25 nM |  |
| Oc1ccc(C(O)CN2C[C@H]3C[C@H](Sc4ccc(F)cc4)C[C@H]3C2)cc1 (stereo partly shown) | < 100 nM | 19.2 nM |  |
| Cc1ccc(O[C@H]2C[C@@H]3CN(CC(=O)c4ccc(O)cn4)C[C@@H]3C2)c(F)n1 | > 10000 nM | 10000 nM |  |
| Cc1ccc(O[C@H]2C[C@@H]3CN(CC(=O)c4ccc(O)cn4)C[C@@H]3C2)c(F)c1 | 100 to 1000 nM | 225 nM |  |
| Oc1ccc(C(O)CN2C[C@H]3C[C@H](Oc4ccc(F)c(F)c4)C[C@H]3C2)nc1 (stereo partly shown) | < 100 nM | 17.8 nM |  |
| Oc1ccc(C(O)CN2C[C@H]3C[C@H](Oc4cncc(Cl)c4)C[C@H]3C2)cc1 (stereo partly shown) | 100 to 1000 nM | 493 nM |  |
| Oc1ccc(C(O)CN2C[C@H]3C[C@H](Oc4ccccc4F)C[C@H]3C2)cc1 (stereo partly shown) | < 100 nM | 4.44 nM |  |

| Compound | IC50 [1] | IC50 [2, 3] | IC50 ([2]; NR2B NAM assay, class of inhibitory concentration, read-out: Activity Category) |
| --- | --- | --- | --- |
| O=C(CN1C[C@H]2C[C@H](Sc3ccccc3)C[C@H]2C1)c1ccc(O)cc1 | < 100 nM | 26.7 nM |  |
| O=C(CN1C[C@H]2C[C@H](Oc3cncnc3)C[C@H]2C1)c1ccc(O)cc1 | 1000 to 10000 nM | 1040 nM |  |
| Oc1ccc(C(O)CN2C[C@H]3C[C@H](Oc4c(F)cccc4F)C[C@H]3C2)cc1 (stereo partly shown) | < 100 nM | 26.3 nM |  |
| O=C(CN1C[C@H]2C[C@H](Oc3cc(F)cc(F)c3)C[C@H]2C1)c1ccc(O)cn1 | > 10000 nM | 10000 nM |  |
| OC(CN1C[C@H]2C[C@H](Oc3ccc(F)cc3)C[C@H]2C1)c1cnn(Cc2ccccc2)c1 (stereo partly shown) | > 10000 nM | 10000 nM |  |
| Cc1cccc(O[C@H]2C[C@@H]3CN(CC(O)c4ccc(O)cc4)C[C@@H]3C2)c1F (stereo partly shown) | < 100 nM | 72.6 nM |  |
| COc1ccc(F)c(O[C@H]2C[C@@H]3CN(CC(O)c4ccc(O)cc4)C[C@@H]3C2)c1 (stereo partly shown) | 100 to 1000 nM | 569 nM |  |
| O=C(CN1C[C@H]2C[C@H](Oc3ccc(F)cc3F)C[C@H]2C1)c1ccc(O)cn1 | 1000 to 10000 nM | 1150 nM |  |
| Cc1ccc(O[C@H]2C[C@@H]3CN(CC(O)c4ccc(O)cn4)C[C@@H]3C2)c(F)c1 (stereo partly shown) | < 100 nM | 14.4 nM |  |
| N#Cc1ccc(O[C@H]2C[C@@H]3CN(CC(O)c4ccc(O)c(F)n4)C[C@@H]3C2)cc1 (stereo partly shown) | 100 to 1000 nM | 367 nM |  |
| COc1ccc(S[C@H]2C[C@@H]3CN(CC(O)c4ccc(O)cc4)C[C@@H]3C2)cc1 (stereo partly shown) | 100 to 1000 nM | 113 nM |  |
| O=C(CN1C[C@H]2C[C@@H](Oc3cc(F)cc(F)c3)C[C@H]2C1)c1ccc(O)cn1 | > 10000 nM | 10000 nM |  |
| Cc1ccc(O[C@H]2C[C@@H]3CN(CC(O)c4ccc(O)cc4)C[C@@H]3C2)cn1 (stereo partly shown) | 100 to 1000 nM | 140 nM |  |
| COc1cccc(O[C@H]2C[C@@H]3CN(CC(O)c4ccc(O)cc4)C[C@@H]3C2)c1F (stereo partly shown) | < 100 nM | 77.7 nM |  |
| Oc1ccc(C(O)CN2C[C@H]3C[C@H](Oc4ccccc4)C[C@H]3C2)cc1 (stereo partly shown) | < 100 nM | 5.96 nM |  |
| O=C(CN1C[C@H]2C[C@@H](Oc3cccnc3)C[C@H]2C1)c1ccc(O)cc1 | 1000 to 10000 nM | 5220 nM |  |
| Oc1ccc(C(O)CN2C[C@H]3C[C@H](Oc4ccc(F)cc4)C[C@H]3C2)nc1 (stereo partly shown) | < 100 nM | 4.41 nM |  |
| OC(CN1C[C@H]2C[C@H](Oc3ccc(F)cc3)C[C@H]2C1)c1cn[nH]c1 (stereo partly shown) [drawing 268] |  | 1980 nM | 1000 to 10000 nM |

Further lines, results first:

| IC50 [1] | IC50 [2, 3] | IC50 ([2]; NR2B NAM assay, class of inhibitory concentration, read-out: Activity Category) | Compound |
| --- | --- | --- | --- |
| < 100 nM | 29.3 nM |  | O=C(CN1C[C@H]2C[C@H](Oc3c(F)cccc3F)C[C@H]2C1)c1ccc(O)cc1 |
| 100 to 1000 nM | 112 nM |  | COc1ccc(O[C@@H]2C[C@@H]3CN(CC(O)c4ccc(O)cc4)C[C@@H]3C2)cc1 (stereo partly shown) |
| > 10000 nM | 10000 nM |  | COc1ncccc1O[C@H]1C[C@@H]2CN(CC(=O)c3ccc(O)cc3)C[C@@H]2C1 |
| 100 to 1000 nM | 434 nM |  | O=C(CN1C[C@H]2C[C@H](Oc3cccnc3)C[C@H]2C1)c1ccc(O)c(F)c1 |
| > 10000 nM | 10000 nM |  | N#Cc1ccc(O[C@H]2C[C@@H]3CN(CC(=O)c4ccc(O)c(F)n4)C[C@@H]3C2)cc1 |
| < 100 nM | 57.3 nM |  | COc1ccc(O[C@@H]2C[C@@H]3CN(CC(=O)c4ccc(O)cc4)C[C@@H]3C2)cc1 |
| 100 to 1000 nM | 250 nM |  | COc1ccc(O[C@@H]2C[C@@H]3CN(CC(=O)c4ccc(O)c(F)c4)C[C@@H]3C2)cc1 |
| 1000 to 10000 nM | 7100 nM |  | COc1ccc(O[C@@H]2C[C@@H]3CN(CC(=O)c4ccc(O)cn4)C[C@@H]3C2)cc1 |
| 1000 to 10000 nM | 2370 nM |  | Cc1ccc(O[C@H]2C[C@@H]3CN(CC(=O)c4ccc(O)c(F)c4)C[C@@H]3C2)cn1 |
| < 100 nM | 16.8 nM |  | O=C(CN1C[C@H]2C[C@H](Oc3ccccc3F)C[C@H]2C1)c1ccc(O)cc1 |
| 100 to 1000 nM | 117 nM |  | COc1cccc(O[C@H]2C[C@@H]3CN(CC(=O)c4ccc(O)cc4)C[C@@H]3C2)c1F |
| < 100 nM | 10.7 nM |  | O=C(CN1C[C@H]2C[C@H](Oc3ccccc3)C[C@H]2C1)c1ccc(O)cc1 |
| < 100 nM | 51.6 nM |  | COc1ccc(O[C@H]2C[C@@H]3CN(CC(O)c4ccc(O)cc4)C[C@@H]3C2)cc1 (stereo partly shown) |
| < 100 nM | 30.5 nM |  | Oc1ccc(C(O)CN2C[C@H]3C[C@@H](Oc4ccc(F)cc4)C[C@H]3C2)cc1F (stereo partly shown) |
| 100 to 1000 nM | 631 nM |  | COc1ccc(F)c(O[C@H]2C[C@@H]3CN(CC(=O)c4ccc(O)cc4)C[C@@H]3C2)c1 |
| 1000 to 10000 nM | 2780 nM |  | O=C(CN1C[C@H]2C[C@H](Oc3ccncc3)C[C@H]2C1)c1ccc(O)cc1 |
| < 100 nM | 68.2 nM |  | N#Cc1ccc(O[C@H]2C[C@@H]3CN(CC(=O)c4ccc(O)cc4)C[C@@H]3C2)cc1 |
| 100 to 1000 nM | 230 nM |  | COc1ccc(S[C@H]2C[C@@H]3CN(CC(=O)c4ccc(O)cc4)C[C@@H]3C2)cc1 |
| 100 to 1000 nM | 699 nM |  | O=C(CN1C[C@H]2C[C@H](Oc3ccc(F)cc3)C[C@H]2C1)c1ccc(O)cn1 |
